US7419669B2, “Peptide epitopes common to antigens of the same multigene family” (Institut Gustave Roussy, priority 2002, dated 2008)
Where no end group is shown, it is not given here.

Legend:
HLA-A*0201 = target: T1, HLA-A*0201 (Homo sapiens, UniProt P04439, D140Y/D185E/D98H/E176V/E277Q/G131W/G231S/I119V/I121R/I166T/I218V/L300P/L318F/N151K/N90K/P208A/P217A/Q86G/Q94H/R138H/R169H/T345S); test: Relative affinity (RA) of peptides for HLA-A*0201 on T2 cells, flow cytometry with BB7.2; type: binding; settings: for affinity for HLA-A*0201 (in words): low affinity = RA>5 and DC50<2 hours; for RA (relative affinity for HLA-A*0201): ratio of peptide concentration to reference peptide (HIVpol 589) concentration inducing 20% of fluorescence obtained with 100 μM reference, T2 cells, lower RA = stronger binding
T1 construct: prevent the expression at their surface of newly synthesized HLA-A*0201 molecules; endogenous in cells; host or cells: human T2 cells (TAP-deficient)
Protocol: The affinity of the selected peptides for HLA-A*0201 was defined by two parameters: the relative affinity (RA); which reflects the ability of the peptides to bind to HLA-A*0201, and the rate of dissociation of the HLA-A*0201/peptide complexes (DC50), which reflects their stability. The peptides with high affinity (RA<5 and DC50>2 hours) are potentially immunogenic, unlike the peptides with low affinity (RA>5 and DC50<2 hours).
Human T2 cells (FIRAT et al., Eur. J. Immunol., 29, 3112, 1999) (3×10^5 cells/ml), which are deficient in TAP transporters, are incubated at 37° C. for 16 hours with various concentrations (100 μM, 10 μM, 1 μM, 0.1 μM) of each test peptide in serum-free RPMI 1640 medium supplemented with 100 ng/ml of human β2-microglobulin. Next, they are washed twice and labeled with the monoclonal antibody BB7.2 (PARHAM et al., Hum. Immunol., 3, 4, 277-299, 1981) which is specific for the HLA-A*0201 molecule, and then with a goat anti-mouse Ig antibody coupled to fluorescein isothiocyanate (FITC).
The cells are then analyzed by flow cytometry. For each concentration of peptide, the specific HLA-A*0201 fluorescence is calculated as a percentage of the fluorescence obtained with 100 μM of a reference peptide (HIVpol 589; […] (SEQ ID No: 1)). The relative affinity (RA) is defined as the ratio of the concentration of each peptide that induces 20% of the fluorescence obtained with 100 μM of the reference peptide, to the concentration of the reference peptide that induces 20% of the fluorescence obtained with 100 μM of said reference peptide. The lower the relative affinity, the stronger the binding of the peptide to HLA-A*0201. The mean RA for each peptide is determined from at least three independent experiments. In all the experiments, 20% of the maximum fluorescence was obtained for 1 to 3 μM of the reference peptide.
The relative affinity (RA) of the selected variant peptides for HLA-A*0201 was measured as described in example 1.

RMAS-HHD target cells = test: Cytotoxicity assay with CTL lines 1R5 and 2R5 (HHD mice immunized with p911Y1V9) on peptide-loaded RMAS-HHD target cells; type: cell-based, murine; settings: for CTL response (specific lysis) to RMAS-HHD cells loaded with the peptide: CTL lines 1R5 and 2R5 induced with p911Y1V9, 10 μM peptide
Protocol: Two CTL lines, called 1R5 and 2R5, were established from the spleen cells of HHD mice immunized with the variant peptide p911Y1V9, according to the same protocol as that described in example 1.
Cytotoxicity assays were carried out as described in example 2. For this, RMAS-HHD target cells loaded with 10 μM of the test peptides (variant or native peptides) were incubated in the presence of cells of the two CTL lines 1R5 and 2R5.
The percentage specific lysis values observed in the presence of the 1R5 (□) and 2R5 (▪) lines and for the various peptides tested are given in FIG. 5.

RMAS-HHD cells = test: Intracellular IFNγ production of CTL line 1R5 with peptide-loaded RMAS-HHD cells; type: cell-based, murine; settings: for response of CD8+ cells of CTL line 1R5 to RMAS-HHD cells loaded with the peptide: intracellular IFNγ production
Protocol: The response of the cells of the CTL line 1R5 with respect to the RMAS-HHD cells loaded with the various peptides was also evaluated by assaying the intracellular IFNγ production.
For this, the cells of the CTL line 1R5 are incubated in the presence of RMAS-HHD cells loaded with the variant peptide p911Y1V9, the native peptides HER1 911, HER2,3 911 or HER4 911, or an irrelevant peptide, and in the presence of 20 μg/ml of Brefeldine-A (Sigma). After 6 hours, the cells are washed, labeled with an anti-CD8 antibody conjugated to r-phycoerythrin, and incubated in PBS for 25 min at 4° C. They are then again washed, before being fixed with a 4% paraformaldehyde solution. The cells are then permeabilized with saponin (Sigma) at 0.2% in PBS, and labeled with an anti-IFNγ monoclonal antibody conjugated to allophycocyanin (Pharmingen).
(§1) The cells are then analyzed by flow cytometry (FACSCalibur™ (Becton Dickinson) and CellQuest™ software).

HHD transgenic mice = test: Induction of specific CTLs in HHD transgenic mice by immunization with variant MAGE-A peptides; 51Cr cytotoxicity on peptide-loaded RMAS-HHD targets; type: in vivo; settings: for recognition of RMAS-HHD targets loaded with the native peptide by CTLs induced with the corresponding variant: native peptide loaded on targets
Protocol: The immunogenicity of the variant peptides p174Y1V10, p262L2 and p248V9 was evaluated by generation of CTLs on HHD transgenic mice (PASCOLO et al., J. Exp. Med., 185, 2043, 1997). These mice are β2m−/−, D^b−/− and express an HLA-A*0201 single chain made up of the α1 and α2 domains of HLA-A*0201 and the α3 and intracellular domains of D^b, linked via its N-terminal to the C-terminal of human β2-microglobulin, via a peptide of 15 amino acids.
The HHD mice are given a subcutaneous injection at the base of the tail with 100 μg of each variant peptide to be tested, emulsified in Freund's incomplete adjuvant, in the presence of 140 μg of a T-helper epitope derived from the HBV “core” antigen (128-140, sequence […]).
After 11 days, spleen cells taken from the mice (5×10^7 cells in 10 ml) are stimulated in vitro with the test peptide (10 μM). On the 6th day of culture, the populations which respond are tested in order to determine a specific cytotoxicity. The cells which respond are restimulated in vitro at one-week intervals with 2×10^7 irradiated (3000 rads) HHD spleen cells and 1 to 0.1 μM of peptide in the presence of 50 IU/ml of recombinant IL2 (Proleukin, Chiron Corp).
Cytotoxicity assays are carried out 6 days after the final stimulation.
RMAS-HHD cells are used as targets to study the cytotoxicity. The cells are obtained by transfection of murine RMAS cells with the HHD construct as described by PASCOLO et al. (J. Exp. Med., 185, 2043, 1997).
These target cells are labeled with 100 μCi of ^51Cr for 90 minutes, and then washed three times and plated out in round-bottomed 96-well plates (3×10^3 cells/well in 100 μl of RPMI 1640+3% of fetal calf serum). They are loaded with various concentrations of test peptide (variant, native peptide, or irrelevant control peptide), at 37° C. for 90 minutes.
Next, 100 μl of the effector cells (effector cell/target cell ratio=40/1) are added to the wells and the plates are incubated at 37° C. for 4 hours. After incubation, 100 μl of supernatant are collected and the radioactivity is measured in a γ-counter.
The percentage of specific lysis is calculated by means of the formula: [(experimental ^51Cr release−spontaneous ^51Cr release)/(maximum ^51Cr release−spontaneous ^51Cr release)]×100. In all the experiments, the spontaneous release is less than 20% of the maximum release induced with 3N HCl.

[1] = system: CD8+ cells from normal donors; test: Induction of specific human CTLs in vitro from PBMCs of normal donors with p248V9, intracellular IFNγ production; type: cell-based; settings: intracellular IFNγ production
Protocol: The ability of p248V9 to induce CTLs in vitro using peripheral blood mononuclear cells (PBMCs) from normal donors was tested as follows.
The PBMCs are obtained, from blood samples taken by leukocytapheresis on normal donors, after centrifugation at 2000 rpm for 20 min on a Ficoll/Hypaque (Amersham) gradient. After 3 washes in 0.9% NaCl, they are resuspended in complete medium (RPMI 1640 supplemented with 10% of heat-inactivated human AB serum, 40 μg/ml of gentamicin (Panpharma) and […] of L-glutamine (Gibco)), and incubated at 37° C. for 2 hours. After incubation, the non-adherent cells are removed. The adherent cells are differentiated into dendritic cells by culturing in a Teflon bag in a proportion of 3×10^6 cells/ml in complete medium supplemented with 500 IU/ml of GM-CSF (R & D Systems) and 500 IU/ml of IL-4 (R & D Systems). On the seventh day, maturing agents (100 ng/ml of polyI:C and 2 μg/ml of anti-CD40 antibody) are added to the culture. After 24 hours, the mature dendritic cells are loaded with the peptide p248V9 by incubation for 2 hours with 10 μM of peptide in the presence of 5 μg/ml of β2-microglobulin, and then irradiated at 3500 rads; they are then washed in order to remove the free peptide. CD8+ cells are isolated from the non-adherent cells by means of microbeads coupled to an anti-CD8 antibody (Miltenyi Biotec).
2×10^5 CD8+ cells are stimulated with 2×10^4 dendritic cells loaded with the peptide, in complete medium supplemented with 1000 IU/ml of IL-6 and 5 IU/ml of IL-12 in a final volume of 100 μl/well in a 96-well plate. From the seventh day, the cultures are stimulated in vitro each week with the dendritic cells loaded with the peptide, in the presence of 20 IU/ml of IL-2 and 10 ng/ml of IL-7. After the third restimulation, the CD8+ cells are collected and stimulated with EBV-transformed HLA-A*0201 allogenic B cells, in a 1/2 ratio, in the presence of 10 μM of peptide, for 16 hours.
The IFNγ-producing CD8+ cells are purified using a commercial kit (IFNγ secretion assay-cell enrichment and detection kit, Miltenyi Biotech). The cells thus purified are cultured for one week in complete medium supplemented with 20 IU/ml of IL-2 and 10 ng/ml of IL-7.
The response of these CD8+ cells to T2 cells loaded with one of the peptides p248V9, p248G9 or p248D9, or with a irrelevant peptide (HIVgag76), or to HLA-A*0201+MAGE-A+ tumor cells (M44 and M113) or HLA-A*0201+MAGE-A^− tumor cells (Caco-2), is evaluated by assaying the intracellular IFNγ production.
The CD8+ cells are incubated with the cells of the tumor line tested, in the presence of 20 μg/ml of Brefeldine-A (Sigma). […]
as §1

| Sequence | CTL response (specific lysis) to RMAS-HHD cells loaded with the peptide (RMAS-HHD target cells) | response of CD8+ cells of CTL line 1R5 to RMAS-HHD cells loaded with the peptide (RMAS-HHD cells) | RA (relative affinity for HLA-A*0201) (HLA-A*0201) | also measured |
| --- | --- | --- | --- | --- |
| CLGLSYDGLL [p174] |  |  |  | affinity for HLA-A*0201 (in words) (HLA-A*0201): low affinity |
| TIWELMTFGG (listed as Homo sapiens) [HER4 911] | induce a CTL response | response of the CD8+ cells of the CTL line 1R5 |  |  |
| TVWELMTFGA (listed as Homo sapiens) [HER2,3 911] | induce a CTL response | response of the CD8+ cells of the CTL line 1R5 |  |  |
| TVWELMTFGS (listed as Homo sapiens) [HER1 911] | induce a CTL response | response of the CD8+ cells of the CTL line 1R5 |  |  |
| YICTIDVYMV (not fully specified) [p945Y1V9] |  |  | >100 |  |
| YLAARNVLV (not fully specified) [p845Y] |  |  | >100 |  |
| YLEYRQVPD (listed as Homo sapiens) [p248D9] |  |  |  | affinity for HLA-A*0201 (in words) (HLA-A*0201): low affinity; recognition of RMAS-HHD targets loaded with the native peptide by CTLs induced with the corresponding variant (HHD transgenic mice): also against the two native peptides; response of p248V9-induced human CD8+ cells to T2 cells loaded with the peptide [1]: a response of the CD8+ cells |
| YLEYRQVPG (listed as Homo sapiens) [p248G9] |  |  |  | affinity for HLA-A*0201 (in words) (HLA-A*0201): low affinity; recognition of RMAS-HHD targets loaded with the native peptide by CTLs induced with the corresponding variant (HHD transgenic mice): also against the two native peptides; response of p248V9-induced human CD8+ cells to T2 cells loaded with the peptide [1]: a response of the CD8+ cells |
| YLFLWGPRA (not fully specified) [p262L2] |  |  |  | CTL response generated by immunization with the variant peptide (HHD transgenic mice; HHD mice, 100 μg s.c. in Freund's incomplete adjuvant, RMAS-HHD targets, effector/target 40/1): induces CTLs capable of recognizing this peptide, but not the native p262 peptide |
| YLLEKGERL (not fully specified) [p933Y] |  |  | >100 |  |
| YVKVLGSGV (not fully specified) [p722Y1V9] |  |  | >100 |  |
| YVWELMTFGV (not fully specified) [p911Y1V9] | induce a CTL response | response of the CD8+ cells of the CTL line 1R5 |  | CTLs generated by the variant peptide, killing of loaded RMAS-HHD target cells (RMAS-HHD target cells; CTL lines 1R5 and 2R5, targets loaded with 10 μM peptide): generates CTLs which kill the RMAS-HHD target cells loaded with the variant peptide p911Y1V9, but also with the native peptides HER1 911, HER2,3 911 or HER4 911; CTLs induced by the variant peptide, recognition by IFNγ production (RMAS-HHD cells; CTL line 1R5): induces CTLs capable of recognizing this variant peptide, but also the native peptides from which it is derived |
| YVWSYGVTV (not fully specified) [p904Y] |  |  | >100 |  |
